According to ChEMBL document CHEMBL1201862, “PubChem BioAssay data set” (2004):
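Protocol summary: plate cells (96-well), add compound at 5 concentrations, incubate 48 h, interpolate endpoints linearly. GI50: concentration for 50% inhibition of growth.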 Calls of active or inactive are those of the source. Cut-off read from the data, not from the text of the source: active = GI50 up to about 1.1 µM and inactive = higher.

Legend:
Assay in all cases: inhibition of tumour cell growth, NCI panel, 48 h
HCT-15 = system: HCT-15
OVCAR-4 = system: OVCAR-4
OVCAR-5 = system: OVCAR-5
MDA-MB-435 = system: MDA-MB-435
A549 = system: A549
Malme-3M = system: Malme-3M
KM12 = system: KM12
OVCAR-3 = system: OVCAR-3
PC-3 = system: PC-3
UO-31 = system: UO-31
SF-268 = system: SF-268
HCC 2998 = system: HCC 2998
U-251 = system: U-251
SK-MEL-28 = system: SK-MEL-28
HOP-62 = system: HOP-62
HCT-116 = system: HCT-116
NCI-H226 = system: NCI-H226
EKVX = system: EKVX
NCI-H522 = system: NCI-H522
MCF7 = system: MCF7

| Compound | GI50 (HCT-15) | GI50 (OVCAR-4) | GI50 (OVCAR-5) | GI50 (MDA-MB-435) | GI50 (A549) | GI50 (Malme-3M) | GI50 (KM12) | GI50 (OVCAR-3) | GI50 (PC-3) | GI50 (UO-31) | GI50 (SF-268) | GI50 (HCC 2998) | GI50 (U-251) | GI50 (SK-MEL-28) | GI50 (HOP-62) | GI50 (HCT-116) | GI50 (NCI-H226) | GI50 (EKVX) | GI50 (NCI-H522) | GI50 (MCF7) |
| --- | --- | --- | --- | --- | --- | --- | --- | --- | --- | --- | --- | --- | --- | --- | --- | --- | --- | --- | --- | --- |
| CCOC(=O)c1sc2nc(SC)nc3c2c1NCN3C | > 100 µM | 20.4 µM (inactive) | 36.1 µM (inactive) | > 100 µM (inactive) | 16.9 µM (inactive) | 24.8 µM (inactive) | > 100 µM (inactive) | > 100 µM (inactive) | > 100 µM (inactive) | 11.9 µM (inactive) | 16.7 µM (inactive) | 62.1 µM (inactive) | 20.6 µM (inactive) | > 100 µM (inactive) | 15.1 µM (inactive) | 22 µM (inactive) | 31.7 µM (inactive) | – | – | – |
| CCOc1ccccc1NC(=O)CCc1nnc(S)[nH]1 | > 100 µM | > 100 µM (inactive) | > 100 µM (inactive) | – | > 100 µM (inactive) | > 100 µM (inactive) | > 100 µM (inactive) | > 100 µM (inactive) | – | > 100 µM (inactive) | > 100 µM (inactive) | > 100 µM (inactive) | > 100 µM (inactive) | > 100 µM (inactive) | > 100 µM (inactive) | > 100 µM (inactive) | > 100 µM (inactive) | > 100 µM (inactive) | > 100 µM (inactive) | – |
| Cc1cc(O)c(C(=O)CC2(O)C(=O)Nc3c(Cl)cc(Cl)cc32)c(=O)o1 (stereo not drawn) | > 100 µM | > 100 µM (inactive) | > 100 µM (inactive) | – | > 100 µM (inactive) | > 100 µM (inactive) | > 100 µM (inactive) | > 100 µM (inactive) | – | > 100 µM (inactive) | > 100 µM (inactive) | > 100 µM (inactive) | > 100 µM (inactive) | > 100 µM (inactive) | > 100 µM (inactive) | > 100 µM (inactive) | 88.1 µM (inactive) | > 100 µM (inactive) | > 100 µM (inactive) | – |
| O=C(c1ccccc1O)c1cc(-c2ncc3c(=O)c4ccccc4oc3n2)c(-c2ccccc2O)[nH]c1=O | 24.9 µM | 22.5 µM (inactive) | 24 µM (inactive) | – | 25.5 µM (inactive) | 30 µM (inactive) | 30 µM (inactive) | 24 µM (inactive) | – | 14.9 µM (inactive) | 22.5 µM (inactive) | 17 µM (inactive) | – | 23.6 µM (inactive) | 18.5 µM (inactive) | 20.7 µM (inactive) | 15 µM (inactive) | 36.5 µM (inactive) | 25.2 µM (inactive) | 14.3 µM (inactive) |
| O=NN(CCF)C(=O)NC1CC2CCC1C2 (stereo not drawn) | > 74.3 µM | > 100 µM (inactive) | > 100 µM (inactive) | – | > 100 µM (inactive) | > 100 µM (inactive) | > 100 µM (inactive) | > 100 µM (inactive) | – | > 100 µM (inactive) | > 100 µM (inactive) | > 100 µM (inactive) | > 100 µM (inactive) | > 100 µM (inactive) | > 84.1 µM (inactive) | > 100 µM (inactive) | – | > 100 µM (inactive) | 73.6 µM (inactive) | 98.9 µM (inactive) |
| COC(=O)[C@]1(c2ccc(N(C)C)cc2OC)C[C@@H]2CCCN(CCc3c1[nH]c1ccccc31)C2 | 20.8 µM | 13.3 µM (inactive) | > 60.4 µM (inactive) | – | 34.4 µM (inactive) | 15.9 µM (inactive) | 23.1 µM (inactive) | 18.5 µM (inactive) | – | 15.5 µM (inactive) | 21.1 µM (inactive) | 15.3 µM (inactive) | 19.1 µM (inactive) | 19.6 µM (inactive) | 30.3 µM (inactive) | 29.9 µM (inactive) | 17.4 µM (inactive) | 22.3 µM (inactive) | 17.4 µM (inactive) | 15.9 µM (inactive) |
| Cc1nc2c(n1-c1ccccc1)C(=O)c1ccccc1C2=O | 20.6 µM | 28.2 µM (inactive) | > 100 µM (inactive) | – | 38.5 µM (inactive) | 11.3 µM (inactive) | 50.2 µM (inactive) | 20.7 µM (inactive) | – | 73.3 µM (inactive) | 54.8 µM (inactive) | 39.6 µM (inactive) | 34 µM (inactive) | 96.2 µM (inactive) | > 100 µM (inactive) | 22.2 µM (inactive) | 58.1 µM (inactive) | > 100 µM (inactive) | 25.2 µM (inactive) | – |
| COC(=O)C(C/C=C(\C)c1ccccc1)C(C)=O (stereo not drawn) | 66.1 µM | 56 µM (inactive) | > 100 µM (inactive) | – | 53.1 µM (inactive) | > 100 µM (inactive) | 58.2 µM (inactive) | 50.6 µM (inactive) | – | 33.2 µM (inactive) | 97.3 µM (inactive) | > 100 µM (inactive) | 57.5 µM (inactive) | > 100 µM (inactive) | > 100 µM (inactive) | 57.1 µM (inactive) | > 72.6 µM (inactive) | > 100 µM (inactive) | 76.7 µM (inactive) | > 70.3 µM (inactive) |
| Cc1ccc(NC(=O)C2C(=O)N(c3ccc(C)c(C)c3)C(=O)/C2=N\NC(N)=O)cc1C (stereo not drawn) | 79.4 µM | > 100 µM (inactive) | > 100 µM (inactive) | – | 52.8 µM (inactive) | > 100 µM (inactive) | > 100 µM (inactive) | 38.4 µM (inactive) | – | 57.4 µM (inactive) | 74 µM (inactive) | > 100 µM (inactive) | 57.3 µM (inactive) | > 100 µM (inactive) | > 100 µM (inactive) | 85.3 µM (inactive) | > 100 µM (inactive) | 55.8 µM (inactive) | 55.1 µM (inactive) | – |
| COc1ccc(-c2c(C(C)=O)c(C)n(C3OC(CO)C(O)C(O)C3O)c(=S)c2C#N)cc1 (stereo not drawn) | > 100 µM | 95.5 µM (inactive) | > 100 µM (inactive) | 72.6 µM (inactive) | > 100 µM (inactive) | 70.5 µM (inactive) | 90.6 µM (inactive) | > 100 µM (inactive) | 47 µM (inactive) | > 100 µM (inactive) | > 100 µM (inactive) | – | 47 µM (inactive) | 44.6 µM (inactive) | > 100 µM (inactive) | 86.9 µM (inactive) | – | 55.1 µM (inactive) | – | > 100 µM (inactive) |
| O=C(/C=C/c1ccccc1O)/C=C/c1ccccc1O | 1.45 µM | 2.61 µM (inactive) | 1.49 µM (inactive) | 1.95 µM (inactive) | 2.21 µM (inactive) | 2.11 µM (inactive) | 1.06 µM (active) | 0.352 µM (active) | 1.74 µM (inactive) | 1.83 µM (inactive) | 0.254 µM (active) | – | 0.482 µM (active) | 1.81 µM (inactive) | 2.26 µM (inactive) | 0.332 µM (active) | – | – | – | – |
| COC(=O)CNCC1OC2OC(C)(C)OC2C1N=[N+]=[N-] (stereo not drawn) | > 100 µM | > 100 µM (inactive) | > 100 µM (inactive) | > 100 µM (inactive) | > 100 µM (inactive) | – | > 100 µM (inactive) | > 100 µM (inactive) | > 100 µM (inactive) | > 100 µM (inactive) | – | – | > 100 µM (inactive) | > 100 µM (inactive) | > 100 µM (inactive) | > 100 µM (inactive) | > 100 µM (inactive) | > 100 µM (inactive) | – | > 100 µM (inactive) |
